Assay results reported in patent publication US20130203649A1, “INHIBITORS OF TLR SIGNALING BY TARGETING TIR DOMAIN INTERFACES” (UNIVERSITY OF MARYLAND, BALTIMORE, priority 2012, published 2013).
No end group written: not given here.

What was measured:
TLR4 [1] = experiment: LPS-induced MAPK (ERK, JNK, p38) activation in mouse macrophages (Western analysis); type: cell-based
Experimental: Cellular protein extracts were isolated by addition of 240 μL per well cold lysate buffer (20 mM Tris, 50 mM NaCl, 1.5 mM MgCl2, 2 mM EDTA, 10 mM NaF, 2 Mm DTT, 1 mM Na3VO4, 1% Triton). Cells were incubated with lysis solution for 30 min on agitator at 4° C. Lysate was then collected and centrifuged at 14,000 g for 10 minutes at 4° C. After quantification using BioRad protein assay, protein samples were added to Laemmli buffer and then boiled for 10 min. Samples were then resolved by SDS-10% PAGE in Tris/glycine/SDS buffer (25 mM Tris, 250 mM glycine, 0.1% SDS), and transferred onto Immobilon P transfer membranes (Millipore, Bedford, Mass.) (100 V, 1.5 h, 4° C.). Membranes were blocked for 1 h in TBS-T (20 mM Tris-HCl, 150 mM NaCl, 0.1% Tween 20) containing 5% nonfat milk, then probed for overnight at 4° C. with the respective antibodies (Abs) (dilution 1:1000 in TBS-T with 2% BSA). After washing in TBS-T, membranes were incubated with secondary HRP-conjugated, donkey anti-rabbit IgG (1:10,000 dilution in TBS-T with 5% nonfat milk) for 1 h at room temperature. Membranes washed five times in TBS-T before development with ECL reagents (GE Healthcare) according to manufacturer's directions.
HEK293T cells were transfected with indicated plasmids using Superfect Transfection Reagent (Qiagen). Twenty-four hours posttransfection, the cells were lysed using the buffer containing 20 mM HEPES (pH 7.4), 150 mM NaCl, 10 mM NaF, 2 mM Na3VO4, 1 mM EDTA, 1 mM EGTA, 0.5% Triton X-100, 0.1 M DTT, 1 mM PMSF, and protease inhibitor mixture (Roche, Indianapolis, Ind.). Rabbit Ab against phospho-ERK, phospho-JNK, MyD88 (D80F5), STAT1-Y701, total STAT1, and GAPDH were purchased from Cell Signaling Technology (Beverly, Mass.). Rabbit anti-phospho-p38 Ab was purchased from Promega (Madison, Wis.). Goat anti-TLR4 (M−16), rabbit anti-TLR4 (H-80), anti-HA-HRP (F-7), and rabbit anti-b-actin Ab were purchased from Santa Cruz Biotechnology. Mouse anti-Flag M2 and rabbit anti-HA Ab were from Sigma-Aldrich. GFP Ab (A1122) was from Invitrogen. Protein was quantified using Bio-Rad protein quantification kit. Equal amount of protein was loaded and analyzed by 10% SDS-PAGE and immunoblotting. The cell extracts containing equal amount of protein were incubated with 1 μg Ab for 2 h, followed by 4-h incubation with 25 μl protein G agarose beads (Roche); the beads were then washed four times with lysis buffer, boiled in […] sample loading buffer, and analyzed by immunoblotting.
We next examined whether TRAM peptides inhibit the TLR4-mediated p38, ERK, and JNK MAPK activation. Murine macrophages pretreated with peptides for 30 min were challenged with LPS. Cell lysates were collected 30 min post-stimulation and analyzed for MAPK phosphorylation by Western analysis. Consistent with peptide effects on steady-state mRNA, both TM4 and TM6 inhibited activation of all three MAPKs (FIG. 5C). The inhibition of MAPKs by TM4 or TM6 was long lasting; it persisted for at least 1 h after LPS stimulation (data not shown). To characterize further the effects of TRAM peptides on MAPKs, murine macrophages were treated with TRAM peptides, but not challenged by LPS.

TLR4 [2] = experiment: LPS-induced cytokine mRNA expression in mouse macrophages (real-time RT-PCR); type: cell-based
Experimental: (§1) C57BL/6J mice were obtained from The Jackson Laboratory (Bar Harbor, Me.). Primary peritoneal macrophages were obtained by peritoneal lavage 4 days after intraperitoneal injection (3 ml) of sterile 3% thioglycolate broth. Washed cells were resuspended in RPMI 1640 which contained 2% FBS, 1% penicillin:streptomycin and 2 mM L-glutamine. After plating, cells were incubated overnight at 37° C. and then washed with PBS to remove non-adherent cells. Cells were exposed to peptides 30 min before stimulation with a TLR agonist.
Total cellular RNA was isolated using Tripure from Roche (San Francisco, Calif.) following manufacture's protocol. RNA was then reverse transcribed using AMV Reverse Transcriptase from Promega (Madison, Wis.) with poly-T priming as per manufacturer's directions. cDNA was then quantified by real-time PCR using Applied Biosystems Fast SYBR Green PCR Master Mix and an ABI Prism 7500HT cycler. Primers used for detection: hypoxanthine phosphoribosyltransferase (HPRT) (forward: […] (SEQ ID NO:51), reverse: […] (SEQ ID NO:52)), TNFα (forward: […] (SEQ ID NO:53), reverse: […] (SEQ ID NO:54)), IL-1β (forward: […] (SEQ ID NO:55), reverse: […] (SEQ ID NO:56)), IFNβ (forward: […] (SEQ ID NO:57), reverse: CTCGGACCACCATCCAGG (SEQ ID NO:58)) and RANTES (forward: […] (SEQ ID NO:59), reverse: […] (SEQ ID NO:60)). The primers were designed using Primer Express 2.0 (Applied Biosystems). Using HPRT as reference, the ΔCt method was used to calculate relative gene expression. One-way ANOVA was preformed, as well as Dunnett's multiple comparison post hoc test with a p≦0.01 selected as the level of significance.
Total RNA was isolated with Nucleospin RNA II kits (Macherey-Nagel, Bethlehem, Pa.), followed by DNase digestion. cDNA was synthesized from 1 μg RNA using Goscript transcriptase (Promega), and subjected to real-time PCR with gene-specific primers for HPRT, TNF-α, IL-1β, IFNβ, and RANTES on H7900 ABI system using Fast SYBR Green master mix (Applied Biosystems, Foster City, Calif.).
To evaluate peptide-inhibitory activities, we first measured LPS-induced cytokine mRNA expression. […] […] Decoy peptide TM4 is derived from the BB loop of TRAM TIR; we previously identified this peptide as an effective TLR4 inhibitor (19).

TLR4 [3] = experiment: LPS-induced STAT1-Y701 phosphorylation in macrophages (immunoblotting); type: cell-based, mouse; conditions: 2 h after LPS
TLR4 [4] = experiment: Inhibition of TLR4 signaling in thioglycollate-elicited mouse macrophages (effective concentration, overall inhibitory activity); type: cell-based; conditions: TLR4 pathway; thioglycollate-elicited mouse macrophages
Experimental: as §1
TIRAP/Mal functions to facilitate MyD88 recruitment to the activated TLR4 and TLR2, presumably through a simultaneous interaction with receptor and MyD88 TIR domains. Therefore, multiple TIR:TIR interaction sites are expected in TIRAP TIR. The decoy peptide approach was used to obtain leads on the functional protein-protein interfaces within TIRAP/Mal, a TLR adapter protein. To this end, eleven TIRAP TIR-derived decoy peptides were designed to be structurally homologous to the TLR4 TIR-derived decoy peptides used previously (1), so that each peptide represents a non-fragmented patch of the TIRAP TIR surface, with the entire domain encompassed by the set of peptides. The TIRAP TIR-derived decoy peptides were synthesized in tandem with the cell-permeating sequence of Antennapedia homeodomain (21) and each peptide was tested for the ability to inhibit TLR4 and TLR2 signaling in primary mouse macrophages. Peptide sequences and the structural regions they represent are shown in reference (30).
C57BL/6J mice were obtained from The Jackson Laboratory (BarHarbor, Me.). Harvesting, culturing, and stimulation of peritoneal macrophages were described in previous publications (1, 18, 19). Escherichia coli K235 LPS (34) was used at the final concentration of 100 ng/ml. The 2,3-bis(palmitoyloxy)-(2-RS)-propyl-N-palmitoyl-(R)-Cys-Ser-Lys4-OH (P3C) and S[2,3-bis(palmitoyloxy)-(2-RS)-propyl]-[R]-Cys-Ser-Lys4-OH (P2C) (EMC Microcollections, Tubingen, Germany) were used at 500 and 50 ng/ml, respectively. Oligonucleotide (ODN) 1668 and low m.w. polyinosinic-polycytidylic acid [poly(I:C)] in complex with LyoVec were obtained from InvivoGen; these agonists were used at 2.5 μM and 400 ng/ml, respectively.

TLR4 [5] = experiment: LPS-induced cytokine secretion by mouse macrophages (ELISA/multiplex); type: cell-based; conditions: 5 or 20 μM peptide; LPS 100 ng/ml; supernatants 24 h
Experimental: Cytokine secretion was measured in supernatant samples collected at 6 or 24 h time points and stored at −80° C. Samples were analyzed by a multiplex assay at the University of Maryland Baltimore Cytokine Core Facility using a Luminex 100 reader and Softmax Pro software, or by ELISA kits for mouse IL-6 or TNF-α from BioLegend (San Diego, Calif.) and LT-4000 microplate reader.
A total of 2×10^6 cells was plated in 12-well plates and treated with peptides for 30 min prior to LPS stimulation. TNF-α, IL-1β, IL-6, and IFN-β were measured using ELISA kits from BioLegend (San Diego, Calif.), as recommended by the manufacturer.

TLR4 [6] = conditions: from references (1, 22); cited from earlier work

Sequence | LPS-induced p38, ERK, and JNK MAPK activation (TLR4 [1]; lysates 30 min after LPS) | LPS-induced (TLR4-mediated) cytokine mRNA expression (TLR4 [2]; 5 or 20 μM peptide 30 min before LPS, 1 or 5 h) | LPS-induced STAT1-Y701 phosphorylation (TLR4 [3]) | Effective conc. (TLR4 [4]) | LPS-induced cytokine secretion (TLR4 [5]) | Inhibition of TLR4 (overall) (TLR4 [6]) | LPS-induced activation of ERK and JNK MAPKs (TLR4 [1]; peritoneal macrophages (FIG. 14B)) | LPS-induced cytokine mRNA induction (TLR4 [2]; peritoneal macrophages (FIG. 14A))
RQIKIWFQNRRMKWKKCEEFQVPGRGELH [TF4] | inhibit | inhibit | inhibit | 20 µM | inhibit |  |  | 
RQIKIWFQNRRMKWKKLHYRDFIPGVAIAA [4R4/4BB] |  |  |  | 20 µM |  | quite potent inhibitor | potently inhibit | potently inhibit
